Laboratory results taken from the pKa sets of Baltruschat and Czodrowski (2020).

| Compound | pKa (basic group) | pKa (acidic group) |
| --- | --- | --- |
| CCCN(CC)c1ccccc1 | 6.39 |  |
| Cc1cc([O-])ccc1O |  | 11.8 |
| O=C(O)c1ccc([N+](=O)[O-])s1 |  | 2.68 |
| CC1[C@H](N)[C@H]1N (stereo partly drawn) | 8.98 |  |
| CCCCOC(=S)NC(C)=O |  | 9.25 |
| CN1C[C@H](C(=O)[O-])C[C@@H]2c3cccc4[nH]cc(c34)C[C@@H]21 | 8.57 |  |
| O=[N+]([O-])c1ccncc1 | 1.86 |  |
| CCOc1cccc(C(=O)O)c1C |  | 3.73 |
| O=P([O-])([O-])C(NCc1ccccn1)c1ccccc1[O-] (stereo not drawn) | 12.1 |  |
| Cc1ccc(O)c2ncccc12 | 5.29 | 9.93 |
| Cc1ccc2ncccc2c1 | 5.1 |  |
| CCC(C)C[C@H]([NH3+])C(=O)O (stereo partly drawn) |  | 3.25 |
| COCCN(C)C | 8.96 |  |
| CNc1nc2ncncc2[nH]1 | 4.78 | 9.56 |
| OCCCCc1cccnc1 | 5.7 |  |
| O=C(Cc1ccccc1)NO |  | 9.26 |
| CC(C)(C(=O)[O-])c1c[nH]c(CO)n1 | 7.38 |  |
| NCC(N)CN | 9.59 |  |
| O=C1C=CN2C[C@@H]3C[C@@H](CN4CCCC[C@H]34)[C@@H]2C1 | 9.25 |  |
| C#CC#CC#CCC(O)CCC(=O)O (stereo not drawn) |  | 4.75 |
| Oc1nc2cc3ccccc3cc2[nH]1 |  | 11.6 |
| CCC(=O)c1cc(C(C)=O)n[nH]1 |  | 9.05 |
| Cc1nnc([N-]S(=O)(=O)c2ccc(O)cc2)s1 |  | 8.81 |
| O=C([O-])c1ccccn1 | 5.32 |  |
| C[n+]1ccc(C(=O)c2ccccc2)cc1 |  | 12.2 |

| Compound | pKa (basic group) | pKa (acidic group) |
| --- | --- | --- |
| CN1CC=CC1 | 9.92 |  |
| COc1cccc(O)c1O |  | 9.28 |
| Cc1c(Cl)ccc2c1nnn2O |  | 4.09 |
| c1cc(C2CCCN2)nc(C2CCCN2)c1 (stereo not drawn) | 10.1 |  |
| [NH3+]CCCc1cccnc1 | 5.19 |  |
| CSC(=N)Nc1ccccc1 | 7.14 |  |
| O=C(O)c1c2ccccc2cc2ccccc12 |  | 3.65 |
| O=C(O)[C@@]1(Cl)[C@@H]2CCC[C@@H]21 |  | 3.03 |
| C=C(CCCC)C(=O)O |  | 4.8 |
| C/N=c1/oc2c(n1C)CCCC2 | 10.2 |  |
| C1CCN(CCCN2CCCCC2)CC1 | 10.1 |  |
| Cc1cc(N)ccn1 | 9.44 |  |
| CCCc1ccc(C)nn1 | 4.25 |  |
| CC1(C)NC(C)(C)[N+](O)=C1c1ccccc1 |  | 2.06 |
| Brc1cccc(-c2nnn[nH]2)c1 |  | 3.82 |
| Cc1ccc(NC(C)(C)C)cc1 | 7.3 |  |
| COC(=O)/C=C(\O)c1ccncc1 |  | 7.51 |
| CCSC(=O)c1ccc(Cl)cc1 | -5.02 |  |
| CCNCC[Se-] | 10.9 |  |
| CN(C)/C=N/c1cccc(Cl)c1 | 7.97 |  |
| COC(=O)C1CN2CCC1CC2 (stereo not drawn) | 9.4 |  |
| Cc1ccc(S(=O)(=O)NC(=O)OCc2ccccc2)cc1 |  | 4.21 |
| Cc1ccc(Cl)cc1C(=O)O |  | 3.63 |
| O=C1CCC(=O)N1O |  | 6.04 |
| COc1cnccc1C(O)O |  | 11.7 |

| Compound | pKa (basic group) | pKa (acidic group) |
| --- | --- | --- |
| [S-]c1ncc2nccnc2n1 | 6.52 |  |
| NCCCCCCCC(=O)[O-] | 11 |  |
| CCCCN(C)C | 10 |  |
| C[n+]1ccc(C(=O)O)cc1 |  | 1.72 |
| Cc1cccc(C(=O)O)c1O |  | 3.02 |
| O=C(O)CC(c1ccccc1)c1ccccc1Cl (stereo not drawn) |  | 4.7 |
| Oc1ccc[nH+]c1 |  | 5.01 |
| [NH3+][C@@H](Cc1ccccc1)C(=O)O |  | 2.21 |
| CCc1ccncc1 | 5.94 |  |
| Cn1c(=O)ccc2ccccc21 |  | -0.71 |
| O=CC1c2ccccc2C(=O)c2ccccc21 |  | 6 |
| Cc1ccc(C(=O)c2cc[nH]n2)cc1 |  | 12 |
| Cn1ncc2c(NC(C)(C)CC(C)(C)C)ncnc21 | 3.96 |  |
| O=C(O)[C@@H]1CC[C@H](C(=O)O)[Se]1 |  | 3.55 |
| CSc1ccncc1 | 5.97 |  |
| Cc1ccc(N)cc1C[NH3+] | 4.67 |  |
| c1ccc2c(c1)C1CCN2c2ccccc21 | 4.54 |  |
| Cc1cccc([Se]CC(=O)O)c1 |  | 3.78 |
| C[n+]1cccc2cccc(O)c21 |  | 6.81 |
| CC(C)(C)c1ccc(N)cc1 | 4.95 |  |
| c1ncc2[nH]cnc2n1 | 2.45 | 8.92 |
| O=C(O)c1cccc(/C=C/[N+](=O)[O-])c1 |  | 3.9 |
| Cc1ccc2c(c1)NCCN2 | 4.97 |  |
| CCCCCCCN | 10.3 |  |
| CSC(C)=N | 6.71 |  |

| Compound | pKa (basic group) | pKa (acidic group) |
| --- | --- | --- |
| Sc1[nH+]ccc2ccccc12 |  | -1.9 |
| Nc1cc2ccccc2nn1 | 3.66 |  |
| NC/C=C\C(=O)[O-] | 9.84 |  |
| O=C(N[C@@H]1C[C@H]2CC[C@@H](C1)N2Cc1ccccc1)c1cccc2c1OCCO2 | 8.68 |  |
| Cc1ccc([C@@H](OCCN(C)C)c2ccccc2)cc1 | 8.5 |  |
| CCCC(=O)C(CCN1CCOCC1)(c1ccccc1)c1ccccc1 | 7.17 |  |
| CN(C)c1ccc([NH+](C)C)cc1 | 2.5 |  |
| O=c1oc2cc(O)ccc2cc1-c1nc2cc(Cl)ccc2o1 |  | 6.8 |
| NCCCCCCBr | 10.6 |  |
| CCCCN1CCCC1C (stereo not drawn) | 10.7 |  |
| CN(C)c1ncnc2[nH]ncc12 | 4.53 | 11 |
| O=C1Nc2cncnc2N/C1=C1/Nc2ncncc2NC1=O | 1 |  |
| CN(C)CC[NH+](C)C | 6.04 |  |
| Cc1cc(C)ncn1 | 2.7 |  |
| CC(=O)/C(C[NH+]1CCCCC1)=N\O |  | 7.05 |
| CCc1ccccc1C(=O)O |  | 3.79 |
| O=C1NC(=O)C2(CCOc3ccc(F)cc32)N1 (stereo not drawn) |  | 8.3 |
| O=C(O)Cc1ccccc1 |  | 4.27 |
| CC(C)N(CCC(c1ccccc1)c1ccccn1)C(C)C (stereo not drawn) | 10.5 |  |
| O=C(O)C#CSc1ccccc1 |  | 2.11 |
| C[C@H](O)[C@H]1CC[C@H]2[C@@H]3CC[C@H]4C[C@H](N)CC[C@]4(C)[C@H]3CC[C@]12C | 9.28 |  |
| Brc1ccc2c(c1)C([P+](c1ccccc1)(c1ccccc1)c1ccccc1)c1ccccc1-2 (stereo not drawn) |  | 7.33 |
| COc1cc2ccc(=O)oc2cc1O |  | 6.5 |
| CC(=O)OCC(=N/[O-])/C(C)=N/O |  | 11.5 |
| O=[N+]([O-])c1ccc2ccc(O)cc2c1 |  | 8.81 |

| Compound | pKa (basic group) | pKa (acidic group) |
| --- | --- | --- |
| C=CCCC(=O)O |  | 4.68 |
| Cn1nc(/N=N/O)nc1N |  | 5.36 |
| O=S(=O)(Nc1cccc(F)c1)c1ccccc1 |  | 7.54 |
| CC[NH+](CC)CC(=N\O)/C(C)=N/O |  | 8.5 |
| CCN(CC)c1ccc([N+](=O)[O-])cc1 | 1.7 |  |
| Cc1c(Cn2cc[nH+]c2)sc2cc(C(=O)O)ccc12 |  | 3.59 |
| c1cnc2c(c1)ccc1ncccc12 | 4 |  |
| N=C(N)Nc1ccccc1 | 10.8 |  |
| N[C@@H](CCCCN1C(=O)C[C@H](N)C1=O)C(=O)[O-] | 9.5 |  |
| CC(=O)c1ccc(O)c(O)c1 |  | 7.8 |
| Nc1ccc(C(=O)c2ccc(N)cc2)cc1 | 2.92 |  |
| COc1ccc(N)cc1 | 5.35 |  |
| CNCC/C(N)=N/O | 9.6 |  |
| O=c1cc(-c2cccc(O)c2)oc2ccccc12 |  | 9.75 |
| CSc1cnc2ccccc2n1 | 0.26 |  |
| CNC(=O)/C=C(\c1ccc2nc(N)n(C3CCCC3)c2c1)c1ccccc1F | 6.7 |  |
| C=C=C(C)C(C)(C)C(=O)O |  | 4.55 |
| Cc1ccc(C)c(N)c1 | 4.47 |  |
| O=C(O)c1ccccc1-c1nnn[nH]1 |  | 2.9 |
| CNCC(N)=O |  | 8.35 |
| Nc1ccc(S(=O)(=O)Nc2cnccn2)cc1 | 1.77 |  |
| NC(=O)Cc1ccccn1 | 4.34 |  |
| CCC(C)(C)N(C)C(C)C | 11.2 |  |
| O=C(O)[C@@H]1O[C@H](Oc2ccc3[nH+]cccc3c2)[C@@H](O)[C@H](O)[C@H]1O |  | 3 |
